In ChEMBL document CHEMBL1152299, “Indazole-based liver X receptor (LXR) modulators with maintained atherosclerotic lesion reduction activity but diminished stimulation of hepatic triglyceride synthesis” (J Med Chem, 2008):
pIC50: −log10 of the molar value. The source made the active and inactive calls. The rule behind the calls is not given here.

What was measured:
[1] = target: T1, Androgen receptor (Homo sapiens, UniProt P10275); assay: (§1) Displacement of radiolabeled mibolerone from human androgen receptor by filter paper assay
T1 sequence (P10275 whole entry): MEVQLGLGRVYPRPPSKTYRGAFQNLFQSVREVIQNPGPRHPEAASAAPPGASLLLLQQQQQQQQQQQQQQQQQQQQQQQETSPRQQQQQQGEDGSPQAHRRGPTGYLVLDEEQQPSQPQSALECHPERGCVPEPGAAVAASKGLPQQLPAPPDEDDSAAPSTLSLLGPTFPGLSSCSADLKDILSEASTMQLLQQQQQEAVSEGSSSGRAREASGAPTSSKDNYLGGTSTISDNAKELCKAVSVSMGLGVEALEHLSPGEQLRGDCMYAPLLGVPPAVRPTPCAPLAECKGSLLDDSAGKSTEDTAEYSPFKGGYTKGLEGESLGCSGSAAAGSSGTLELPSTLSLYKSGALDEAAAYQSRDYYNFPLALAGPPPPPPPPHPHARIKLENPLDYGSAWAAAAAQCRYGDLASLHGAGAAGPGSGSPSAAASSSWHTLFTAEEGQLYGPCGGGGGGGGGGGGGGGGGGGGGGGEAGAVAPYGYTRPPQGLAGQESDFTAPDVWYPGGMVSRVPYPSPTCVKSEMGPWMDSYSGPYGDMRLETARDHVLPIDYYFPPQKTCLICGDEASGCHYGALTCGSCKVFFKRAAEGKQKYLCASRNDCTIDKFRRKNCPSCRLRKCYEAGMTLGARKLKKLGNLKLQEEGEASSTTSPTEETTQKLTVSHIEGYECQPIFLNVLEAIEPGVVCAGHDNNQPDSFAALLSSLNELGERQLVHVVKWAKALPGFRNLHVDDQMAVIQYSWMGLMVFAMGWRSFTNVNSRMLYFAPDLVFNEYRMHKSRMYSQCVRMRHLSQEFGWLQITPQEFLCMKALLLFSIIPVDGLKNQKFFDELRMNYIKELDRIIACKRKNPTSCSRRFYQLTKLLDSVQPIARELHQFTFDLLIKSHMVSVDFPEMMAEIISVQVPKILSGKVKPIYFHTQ

[2] = AUC (0 to infinity) in C57 mouse at 1 mg/kg, iv and 10 mg/kg, po; format: ADME, organism-based; conditions: plasma
[3] = target: T2, Androgen receptor (Homo sapiens) (UniProt P10275); assay: as §1
T2 sequence (whole entry): T1 sequence (P10275 whole entry)

[4] = target: T3, Mineralocorticoid receptor (Homo sapiens, UniProt P08235); assay: Displacement of radiolabeled aldosterone from human mineralocorticoid receptor by filter paper assay
T3 sequence (P08235 whole entry): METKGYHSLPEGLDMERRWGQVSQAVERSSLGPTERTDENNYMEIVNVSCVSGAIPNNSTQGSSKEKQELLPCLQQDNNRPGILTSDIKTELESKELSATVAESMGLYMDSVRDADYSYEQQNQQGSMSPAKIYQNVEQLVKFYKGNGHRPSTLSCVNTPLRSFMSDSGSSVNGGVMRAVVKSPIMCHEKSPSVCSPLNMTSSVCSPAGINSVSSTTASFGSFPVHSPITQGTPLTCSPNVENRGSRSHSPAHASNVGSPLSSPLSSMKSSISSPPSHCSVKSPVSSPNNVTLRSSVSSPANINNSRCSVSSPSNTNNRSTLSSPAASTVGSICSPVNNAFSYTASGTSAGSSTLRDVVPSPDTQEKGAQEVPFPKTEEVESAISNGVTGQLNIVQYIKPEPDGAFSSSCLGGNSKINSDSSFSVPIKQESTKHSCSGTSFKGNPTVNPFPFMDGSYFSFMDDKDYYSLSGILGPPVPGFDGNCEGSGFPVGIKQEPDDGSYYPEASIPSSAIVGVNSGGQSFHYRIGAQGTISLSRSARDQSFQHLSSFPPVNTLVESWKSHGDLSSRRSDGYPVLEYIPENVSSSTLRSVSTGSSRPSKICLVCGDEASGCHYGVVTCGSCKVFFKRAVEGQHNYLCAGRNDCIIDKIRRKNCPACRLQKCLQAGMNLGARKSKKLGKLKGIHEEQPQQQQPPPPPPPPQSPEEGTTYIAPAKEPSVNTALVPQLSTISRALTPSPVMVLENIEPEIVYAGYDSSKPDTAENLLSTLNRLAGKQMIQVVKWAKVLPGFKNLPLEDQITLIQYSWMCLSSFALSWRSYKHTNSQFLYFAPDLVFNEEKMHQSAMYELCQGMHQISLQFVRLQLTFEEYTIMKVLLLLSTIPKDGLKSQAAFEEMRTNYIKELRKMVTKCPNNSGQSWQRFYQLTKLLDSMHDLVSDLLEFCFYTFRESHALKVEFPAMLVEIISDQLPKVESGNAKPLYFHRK

| pIC50 [1] | AUC(0-inf) [2] | Activity [3] | pIC50 [4] | Compound |
| --- | --- | --- | --- | --- |
| 5.64 |  |  |  | Fc1ccc(-c2c3cccc(C(F)(F)F)c3nn2Cc2ccc(F)cc2Cl)cc1 [LXR-623] |
|  | 3100 ng·h/mL | inactive | < 5.00 | Fc1ccc(-c2c3cccc(C(F)(F)F)c3nn2Cc2ccccc2F)cc1 |
